Data: patent US4454145A, “Nicotinates of alkanediols having hypolipidaemic activity and pharmaceutical compositions containing them” (Alfa Farmaceutici S.p.A., priority 1981, dated 1984)
Like-named read-outs stand apart in the source and are kept apart here.

Experiments:
Type in all cases: in vivo, Male Wistar rats
[1] = system: total cholesterol in rats fed with hypercholesterolemic diet; assay: Test B: variation of total cholesterol in rats fed with Tensho et al. hypercholesterolemic diet; conditions: Table 3, oral
From the text: (B) Determination of the variation of total cholesterol in rats fed with Greenberg […] diet modified according to Tensho et al.
The rats are subdivided in 3 experimental groups:
(1) control group, normally fed;
(2) diet group, fed only with the Tensho diet;
(3) treated group, fed with the Tensho diet and treated with the compounds to be tested.
At the beginning of the eighth day the rats, fasted since the previous evenging, are sacrified under ethereal anaesthesia by means of an intracardiacal injection. […] The percent decrease of the hematic cholesterol is calculated by means of the following formula: [formula] Ch=cholesterol

[2] = system: hypertriglyceridemia caused by ethanol; assay: Test C: decrease of triglycerides content in the serum of rats based on hypertriglyceridemia caused by ethanol; conditions: Table 3, oral, ethanol in drinking water
From the text: (C) Determination of the decrease of triglycerides content in the serum of rats based on hypertriglyceridemia caused by ethanol. Male Wistar rats weighing 260±20 g, normally fed, are subdivided in experimental groups of 10 animals each: (1) control group, normally fed; (2) diet group, given drinking water containing 10% (v/v) of ethanol since the second day; (3) treated group, given drinking water containing 10% (v/v) of ethanol and treated with the compounds to be tested from the second day. At the beginning of the fourth day, after 18 hours of fast, the animals are sacrificed under ethereal anaesthesia by means of an intracardiacal injection. The dosage of the triglycerides is carried out on the serum using the enzymatic method described by […]. and […]. […] The percent decrease of the triglycerides has been calculated as above.

[3] = system: hypertriglyceridemia caused by fructose; assay: Test A: decrease of triglycerides content in the serum of rats due to hypertriglyceridemia caused by fructose; conditions: for change in vivo at 50 mg/kg: Rattus norvegicus, po, 72 h, read-out: ΔTGhematic (percent decrease of the hematic triglycerides); for change in vivo at 50 mg/kg / ΔTGhematic (percent decrease of the hematic triglycerides): 50 mg/Kg/os/die, three days, fructose diet; for ED50, Test diet of fructose: Table 3, oral
From the text: (A) Determination of the decrease of triglycerides content in the serum of rats due to hypertriglyceridemia caused by fructose.
Male Wistar rats weighing 260±20 g, normally fed, subdivided in groups of 6 animals each, are used. The test lasts three days: in the first day the animals are normally fed but are kept without drinking water; in the second and third day they receive a 20% (w/v) water solution of fructose instead of water; moreover in the second day they are fed by means of a gastric probe with further 4 ml of 50% (w/v) aqueous solution of fructose. […] The animals are sacrificed undr ethereal anaesthesia 4 hours after the treatment of the third day and the blood is drawn by an intracardiacal injection.
The percent decrease of the hematic triglycerides due to the treatment with the compound to be tested is expressed as ΔTGhematic and is represented by the following formula: [formula] TG=triglycerides.

SMILES: CC(C)(CCCCCCCC(C)(C)COC(=O)c1cccnc1)COC(=O)c1cccnc1 [Example 4, 2,2,10,10-Tetramethyl-1,11-undecanediol dinicotinate]
- ED50, Test diet of Tensho [1]: 0.0891 mmole/Kg/os/die
- ED50, Test diet of ethanol [2]: 0.0718 mmole/Kg/os/die
- change in vivo at 50 mg/kg ([3]; Table 1, esters): -92.5%
- ED50, Test diet of fructose [3]: 0.0029 mmole/Kg/os/die

SMILES: CCC(C)(CO)CCCCCCCCC(C)(CC)CO (stereo not drawn) [Example 20]
- change in vivo at 50 mg/kg ([3]; Table 2, acids and alcohols): -50.1%

SMILES: CCCCC(C)(CCCCCCCCC(C)(CCCC)COC(=O)c1cccnc1)COC(=O)c1cccnc1 (stereo not drawn) [Table 1 No. 12, 2,11-di-n-butyl-2,11-dimethyl-1,12-dodecanediol dinicotinate]
- change in vivo at 50 mg/kg ([3]; Table 1, esters): -59.1%

SMILES: CCC(C)(CCCCCCCC(C)(CC)COC(=O)c1cccnc1)COC(=O)c1cccnc1 (stereo not drawn) [Table 1 No. 8, 2,10-diethyl-2,10-dimethyl-1,11-undecanediol dinicotinate]
- change in vivo at 50 mg/kg ([3]; Table 1, esters): -98%

SMILES: CCCCC(C)(CCCCCCCCC(C)(CCCC)C(=O)O)C(=O)O (stereo not drawn) [Example 23]
- change in vivo at 50 mg/kg ([3]; Table 2, acids and alcohols): -62.4%

SMILES: CC(C)(CO)CCCCC(C)(C)CO [Table 2 No. 2, 2,2,7,7-tetramethyl-1,8-octanediol]
- ΔTGhematic (percent decrease of the hematic triglycerides) ([3]; Table 2, acids and alcohols): inactive

SMILES: CCCCC(C)(CO)CCCCCCC(C)(CO)CCCC (stereo not drawn) [Table 2 No. 12, 2,9-di-n-butyl-2,9-dimethyl-1,10-decanediol]
- change in vivo at 50 mg/kg ([3]; Table 2, acids and alcohols): -58.7%

SMILES: CC(C)(CCCCCCC(C)(C)C(=O)O)C(=O)O [Table 2 No. 5]
- change in vivo at 50 mg/kg ([3]; Table 2, acids and alcohols): -91.8%

SMILES: CC(C)(CCCCCCCCC(C)(C)C(=O)O)C(=O)O [Example 17]
- change in vivo at 50 mg/kg ([3]; Table 2, acids and alcohols): -97.5%

SMILES: O=C(O)c1cccnc1 [Nicotinic acid, reference compound]
- ED50, Test diet of Tensho [1]: 0.3020 mmole/Kg/os/die
- ED50, Test diet of ethanol [2]: 0.4800 mmole/Kg/os/die
- ED50, Test diet of fructose [3]: 0.4760 mmole/Kg/os/die

SMILES: CC(C)(CCCCCCCCC(C)(C)COC(=O)c1cccnc1)COC(=O)c1cccnc1 [Example 5, 2,2,11,11-Tetramethyl-1,12-dodecanediol dinicotinate]
- ED50, Test diet of Tensho [1]: 0.0880 mmole/Kg/os/die
- ED50, Test diet of ethanol [2]: 0.0707 mmole/Kg/os/die
- change in vivo at 50 mg/kg ([3]; Table 1, esters): -98%
- ED50, Test diet of fructose [3]: 0.0026 mmole/Kg/os/die

SMILES: CC(C)(CCCCCC(C)(C)COC(=O)c1cccnc1)COC(=O)c1cccnc1 [Example 2, 2,2,8,8-Tetramethyl-1,9-nonanediol dinicotinate]
- change in vivo at 50 mg/kg ([3]; Table 1, esters): -80%

SMILES: CCC(C)(CCCCCCCCC(C)(CC)C(=O)O)C(=O)O (stereo not drawn) [Example 19]
- change in vivo at 50 mg/kg ([3]; Table 2, acids and alcohols): -57.4%

SMILES: CCC(C)(CO)CCCCCCCC(C)(CC)CO (stereo not drawn) [Example 16]
- change in vivo at 50 mg/kg ([3]; Table 2, acids and alcohols): -90%

SMILES: CC(C)(CCCCC(C)(C)COC(=O)c1cccnc1)COC(=O)c1cccnc1 [Example 1, 2,2,7,7-Tetramethyl-1,8-octanediol dinicotinate]
- change in vivo at 50 mg/kg ([3]; Table 1, esters): -60%

SMILES: CC(C)(CCCCCCCC(C)(C)C(=O)O)C(=O)O [Example 13]
- change in vivo at 50 mg/kg ([3]; Table 2, acids and alcohols): -91.8%

SMILES: CCCC(C)(CCCCCCCCC(C)(CCC)COC(=O)c1cccnc1)COC(=O)c1cccnc1 (stereo not drawn) [Table 1 No. 11, 2,11-dimethyl-2,11-di-n-propyl-1,12-dodecanediol dinicotinate]
- change in vivo at 50 mg/kg ([3]; Table 1, esters): -65.8%

SMILES: CCCC(C)(CO)CCCCCCCCC(C)(CO)CCC (stereo not drawn) [Example 22]
- change in vivo at 50 mg/kg ([3]; Table 2, acids and alcohols): -45.2%

SMILES: CCCCC(C)(CO)CCCCCCCCC(C)(CO)CCCC (stereo not drawn) [Example 24]
- change in vivo at 50 mg/kg ([3]; Table 2, acids and alcohols): -60.2%

SMILES: CCCCC(C)(CCCCCCC(C)(CCCC)COC(=O)c1cccnc1)COC(=O)c1cccnc1 (stereo not drawn) [Table 1 No. 6, 2,9-di-n-butyl-2,9-dimethyl-1,10-decanediol dinicotinate]
- change in vivo at 50 mg/kg ([3]; Table 1, esters): -85.6%

SMILES: CCC(C)(CCCCCCCCC(C)(CC)COC(=O)c1cccnc1)COC(=O)c1cccnc1 (stereo not drawn) [Table 1 No. 10, 2,11-diethyl-2,11-dimethyl-1,12-dodecanediol dinicotinate]
- change in vivo at 50 mg/kg ([3]; Table 1, esters): -66%

SMILES: CCCC(C)(CCCCCCC(C)(CCC)C(=O)O)C(=O)O (stereo not drawn) [Table 2 No. 9]
- change in vivo at 50 mg/kg ([3]; Table 2, acids and alcohols): -89.5%

SMILES: CCC(C)(CCCCCCCC(C)(CC)C(=O)O)C(=O)O (stereo not drawn) [Example 15]
- change in vivo at 50 mg/kg ([3]; Table 2, acids and alcohols): -97%

SMILES: CC(C)(CCCCCCC(C)(C)COC(=O)c1cccnc1)COC(=O)c1cccnc1 [Example 3, 2,2,9,9-Tetramethyl-1,10-decanediol dinicotinate]
- ED50, Test diet of Tensho [1]: 0.0900 mmole/Kg/os/die
- ED50, Test diet of ethanol [2]: 0.0727 mmole/Kg/os/die
- change in vivo at 50 mg/kg ([3]; Table 1, esters): -99%
- ED50, Test diet of fructose [3]: 0.0034 mmole/Kg/os/die

SMILES: CCCCC(C)(CCCCCCC(C)(CCCC)C(=O)O)C(=O)O (stereo not drawn) [Table 2 No. 11]
- change in vivo at 50 mg/kg ([3]; Table 2, acids and alcohols): -65.4%

SMILES: CC(C)(CO)CCCCCCC(C)(C)CO [Table 2 No. 6, 2,2,9,9-tetramethyl-1,10-decanediol]
- change in vivo at 50 mg/kg ([3]; Table 2, acids and alcohols): -94%

SMILES: CC(C)(CO)CCCCCCCC(C)(C)CO [Example 14]
- change in vivo at 50 mg/kg ([3]; Table 2, acids and alcohols): -92%

SMILES: CCC(C)(CCCCCCC(C)(CC)C(=O)O)C(=O)O (stereo not drawn) [Example 7, 2,9-Diethyl-2,9-dimethyl-1,10-decanedioic acid]
- change in vivo at 50 mg/kg ([3]; Table 2, acids and alcohols): -82.1%

SMILES: CC(C)(CCCCCC(C)(C)C(=O)O)C(=O)O [Table 2 No. 3]
- ΔTGhematic (percent decrease of the hematic triglycerides) ([3]; Table 2, acids and alcohols): inactive

SMILES: CCCC(C)(CO)CCCCCCC(C)(CO)CCC (stereo not drawn) [Table 2 No. 10, 2,9-dimethyl-2,9-di-n-propyl-1,10-decanediol]
- change in vivo at 50 mg/kg ([3]; Table 2, acids and alcohols): -88.3%

SMILES: CCCC(C)(CCCCCCC(C)(CCC)COC(=O)c1cccnc1)COC(=O)c1cccnc1 (stereo not drawn) [Table 1 No. 5, 2,9-dimethyl-2,9-di-n-propyl-1,10-decanediol dinicotinate]
- change in vivo at 50 mg/kg ([3]; Table 1, esters): -90%

SMILES: CC(C)(CO)CCCCCC(C)(C)CO [Table 2 No. 4, 2,2,8,8-tetramethyl-1,9-nonanediol]
- ΔTGhematic (percent decrease of the hematic triglycerides) ([3]; Table 2, acids and alcohols): inactive

SMILES: CC(C)(CO)CCCCCCCCC(C)(C)CO [Example 18]
- change in vivo at 50 mg/kg ([3]; Table 2, acids and alcohols): -93.4%

SMILES: CCCC(C)(CCCCCCCCC(C)(CCC)C(=O)O)C(=O)O (stereo not drawn) [Example 21]
- change in vivo at 50 mg/kg ([3]; Table 2, acids and alcohols): -64.3%

SMILES: CC(C)(CCCCC(C)(C)C(=O)O)C(=O)O [Table 2 No. 1]
- ΔTGhematic (percent decrease of the hematic triglycerides) ([3]; Table 2, acids and alcohols): inactive

SMILES: CCC(C)(CO)CCCCCCC(C)(CC)CO (stereo not drawn) [Example 8, 2,9-Diethyl-2,9-dimethyl-1,10-decanediol]
- change in vivo at 50 mg/kg ([3]; Table 2, acids and alcohols): -81.5%

SMILES: CCC(C)(CCCCCCC(C)(CC)COC(=O)c1cccnc1)COC(=O)c1cccnc1 (stereo not drawn) [Table 1 No. 4, 2,9-diethyl-2,9-dimethyl-1,10-decanediol dinicotinate]
- change in vivo at 50 mg/kg ([3]; Table 1, esters): -87%
